# Test results: patent US8415475B2, “Antibacterial quinoline derivatives” (Janssen Pharmaceutica N.V., priority 2006, dated 2013)
# Assays:
# M. Smegmatis (ATCC607) = experiment: In-vitro anti-bacterial activity against strain M. smegmatis ATCC607; assay type: cell-based; conditions: 90% inhibitory concentration for bacterial growth, Alamar Blue fluorescence; for IC90: Mycolicibacterium smegmatis, ATCC607, 48 h, read-out: IC90 values MSM 1 ATCC607; for IC90 values MSM 1 ATCC607: 48 hours
# Description: D.2. In-Vitro Method for Testing Compounds for Anti-Bacterial Activity Against Strain M. smegmatis ATCC607. Flat-bottom, sterile 96-well plastic microtiter plates were filled with 180 μl of sterile deionized water, supplemented with 0.25% BSA. Subsequently, stock solutions (7.8× final test concentration) of compounds were added in 45 μl volumes to a series of duplicate wells in column 2 so as to allow evaluation of their effects on bacterial growth. Serial five-fold dilutions (45 μl in 180 μl) were made directly in the microtiter plates from column 2 to 11 using a customised robot system (Zymark Corp., Hopkinton, Mass.). Pipette tips were changed after every 3 dilutions to minimize pipetting errors with high hydrophobic compounds. Untreated control samples with (column 1) and without (column 12) inoculum were included in each microtiter plate. Approximately 250 CFU per well of bacteria inoculum, in a volume of 100 μl in 2.8× Mueller-Hinton broth medium, was added to the rows […]. The same volume of broth medium without inoculum was added to column 12 in row A to H. The cultures were incubated at 37° C. for 48 hours in a humidified 5% CO2 atmosphere (incubator with open air valve and continuous ventilation). At the end of incubation, two days after inoculation, the bacterial growth was quantitated fluorometrically. Therefore Alamar Blue (10×) was added to all wells in a volume of 20 μl and plates were incubated for another 2 hours at […] The fluorescence was read in a computer-controlled fluorometer (Cytofluor, Biosearch) at an excitation wavelength of 530 nm and an emission wavelength of 590 nm (gain 30).
# [1] = tested on: Staphylococcus aureus (ATCC29213); experiment: In-vitro anti-bacterial microtitre plate assay, IC90, S. aureus; assay type: cell-based; conditions: 90% inhibitory concentration for bacterial growth, resazurin fluorescence; for IC90: Staphylococcus aureus, ATCC29213, 24 h, read-out: IC90 values STA 1 B29213; for IC90 values STA 1 B29213: 24 hours
# Description: (§1) D.3. In-Vitro Method for Testing Compounds for Anti-Bacterial Activity Against Various Non-Mycobacterial Strains The bacteria used in this study were grown overnight in flasks containing 100 ml Mueller-Hinton Broth (Becton Dickinson-cat. no. 275730) in sterile de-ionized water, with shaking, at 37° C. Stocks (0.5 ml/tube) were stored at -70° C. until use. Bacteria titrations were performed in microtiter plates to detect the TCID50, in which the TCID50 represents the dilution that gives rise to bacterial growth in 50% of inoculated cultures. In general, an inoculum level of approximately 100 TCID50 was used for susceptibility testing. Flat-bottom, sterile 96-well plastic microtiter plates were filled with 180 μl of sterile deionized water, supplemented with 0.25% BSA. Subsequently, stock solutions (7.8× final test concentration) of compounds were added in 45 μl volumes in column 2. Serial five-fold dilutions (45 μl in 180 μl) were made directly in the microtiter plates from column 2 to reach column 11. Untreated control samples with (column 1) and without (column 12) inoculum were included in each microtiter plate. Depending on the bacteria type, approximately 10 to 60 CFU per well of bacteria inoculum (100 TCID50), in a volume of 100 μl in 2.8× Mueller-Hinton broth medium, was added to the rows […]. The same volume of broth medium without inoculum was added to column 12 in row A to H. The cultures were incubated at 37° C. for 24 hours under a normal atmosphere (incubator with open air valve and continuous ventilation). At the end of incubation, one day after inoculation, the bacterial growth was quantitated fluorometrically. Therefore resazurin (0.6 mg/ml) was added in a volume of 20 μl to all wells 3 hours after inoculation, and the plates were re-incubated overnight. A change in colour from blue to pink indicated the growth of bacteria. The fluorescence was read in a computer-controlled fluorometer (Cytofluor Biosearch) at an excitation wavelength of 530 nm and an emission wavelength of 590 nm. The % growth inhibition achieved by the compounds was calculated according to standard methods.
# [2] = tested on: Streptococcus pneumoniae (ATCC6305); experiment: In-vitro anti-bacterial microtitre plate assay, IC90, S. pneumoniae; assay type: cell-based; conditions: 90% inhibitory concentration for bacterial growth, resazurin fluorescence; for IC90: Streptococcus pneumoniae, ATCC6305, 24 h, read-out: IC90 values SPN 1 6305; for IC90 values SPN 1 6305: 24 hours
# Description: as §1
# [3] = tested on: Mycobacterium tuberculosis (strain H37RV); experiment: In-vitro method for testing compounds against M. tuberculosis; assay type: cell-based; conditions: 90% inhibitory concentration for bacterial growth, 7 days, Middlebrook broth, resazurin fluorescence; for IC90: Mycobacterium tuberculosis, H37RV, 168 h, read-out: IC90 values MTB 1 H37RV
# [4] = tested on: Streptococcus pyogens (ATCC8668); experiment: In-vitro anti-bacterial microtitre plate assay, IC90, S. pyogens; assay type: cell-based; conditions: 90% inhibitory concentration for bacterial growth, resazurin fluorescence; for IC90: Streptococcus, ATCC8668, 24 h, read-out: IC90 values SPY 8668; for IC90 values SPY 8668: 24 hours
# Description: as §1
# [5] = tested on: Escherichia coli (ATCC35218); experiment: In-vitro anti-bacterial microtitre plate assay, IC90, E. coli; assay type: cell-based; conditions: 90% inhibitory concentration for bacterial growth, resazurin fluorescence; for IC90: Escherichia coli, ATCC35218, 24 h, read-out: IC90 values ECO 35218; for IC90 values ECO 35218: 24 hours
# Description: as §1
# [6] = tested on: Enterococcus faecalis (ATCC29212); experiment: In-vitro anti-bacterial microtitre plate assay, IC90, E. faecalis; assay type: cell-based; conditions: 90% inhibitory concentration for bacterial growth, resazurin fluorescence; for IC90: Enterococcus faecalis, ATCC29212, 24 h, read-out: IC90 values EFA 29212; for IC90 values EFA 29212: 24 hours
# Description: as §1
# [7] = tested on: Pseudomonas aeruginosa (ATCC27853); experiment: In-vitro anti-bacterial microtitre plate assay, IC90, P. aeruginosa; assay type: cell-based; conditions: 90% inhibitory concentration for bacterial growth, resazurin fluorescence; for IC90: Pseudomonas aeruginosa, ATCC27853, 24 h, read-out: IC90 values PAE 27853; for IC90 values PAE 27853: 24 hours
# Description: as §1
Compound,IC90 (M. Smegmatis (ATCC607)) [µg/mL],IC90 [1] [µg/mL],IC90 [2] [µg/mL],IC90 [3] [µg/mL],melting point [°C],IC90 values MSM 1 ATCC607 (M. Smegmatis (ATCC607)) [µg/mL],IC90 values SPN 1 6305 [2] [µg/mL],IC90 [4] [µg/mL],IC90 [5] [µg/mL],IC90 [6] [µg/mL],IC90 [7] [µg/mL],IC90 values STA 1 B29213 [1] [µg/mL],IC90 values SPY 8668 [4] [µg/mL],IC90 values EFA 29212 [6] [µg/mL],IC90 values PAE 27853 [7] [µg/mL],IC90 values ECO 35218 [5] [µg/mL],IC90 values MTB 1 H37RV [3] [µg/mL]
"COc1nc2ccc(C(=O)N3CCN(C)CC3)cc2cc1C(c1ccccc1)C(O)(CCN(C)C)c1cccc2ccccc12 (single isomer, unassigned) [Compound 31]",0.4,38,10.7,4.8,195,–,–,–,–,–,–,–,–,–,–,–,–
"COc1nc2ccc(N3CCOCC3)cc2cc1C(c1ccccc1)C(O)(CCN(C)C)c1ccccc1 (single isomer, unassigned) [Compound 5]",–,40.6,–,–,–,0.04,9.1,40.6,51.2,40.6,–,–,–,–,–,–,–
"C/C=C/c1ccc2nc(OC)c(C(c3ccccc3)C(O)(CCN(C)C)c3cccc4ccccc34)cc2c1 (single isomer, unassigned) [Compound 11]",–,–,–,–,190,0.01,1.8,–,–,–,51.7,51.7,51.67,51.67,–,–,–
COc1nc2ccc(CN)cc2cc1C(c1ccccc1)C(O)(CCN(C)C)c1cccc2ccccc12 (stereo not drawn) [Compound 18],–,–,–,–,–,0.4,3.6,–,–,–,–,8.0,6.37,17.94,8.01,8.01,1.6
"COc1nc2ccc(N3CCOCC3)cc2cc1C(c1ccccc1)C(O)(CCN(C)C)c1cccc2ccccc12 (single isomer, unassigned) [Compound 30]",0.1,44.6,14.1,8.9,210,–,–,44.6,56.2,44.6,22.4,–,–,–,–,–,–
"CO/N=C/c1ccc2nc(OC)c(C(c3ccccc3)C(O)(CCN(C)C)c3cccc4ccccc34)cc2c1 (single isomer, unassigned) [Compound 25]",0.3,–,–,–,228,–,2.1,–,53.4,–,–,8.5,8.46,8.46,8.46,–,1.7
"CO/N=C/c1ccc2nc(OC)c(C(c3ccccc3)C(O)(CCN(C)C)c3cccc4ccccc34)cc2c1 (single isomer, unassigned) [Compound 26]",–,–,–,–,170,0.3,18.9,–,–,–,–,53.4,53.37,53.37,53.37,53.37,8.5
"COc1nc2ccc(/C=N/O)cc2cc1C(c1ccccc1)C(O)(CCN(C)C)c1cccc2ccccc12 (single isomer, unassigned) [Compound 23]",–,–,–,7.3,187,0.3,0.3,8.24,52,18.4,8.24,6.5,–,–,–,–,–
"COc1nc2ccc(CNC(C)=O)cc2cc1C(c1ccccc1)C(O)(CCN(C)C)c1cccc2ccccc12 (single isomer, unassigned) [Compound 27]",4.4,34.6,8.7,21.8,203,–,–,–,–,–,–,–,–,–,–,–,–
COc1nc2ccc(CN)cc2cc1C(c1ccccc1)C(O)(CCN(C)C)c1cccc2ccccc12 (stereo not drawn) [Compound 19],–,8,1.8,–,–,1.6,–,8.01,–,–,8.01,–,–,40.17,–,40.17,8.0
C=Cc1ccc2nc(OC)c(C(c3ccccc3)C(O)(CCN(C)C)c3cccc4ccccc34)cc2c1 (stereo not drawn) [Compound 9],0.003,50.3,0.3,0.2,–,–,–,50.3,50.3,50.3,50.3,–,–,–,–,–,–
"COc1nc2ccc(N)cc2cc1C(c1ccccc1)C(O)(CCN(C)C)c1cccc2ccccc12 (single isomer, unassigned) [Compound 15]",–,–,–,–,205,0.3,7.8,–,–,–,–,7.8,–,–,–,–,1.6
"C=Cc1ccc2nc(OC)c(C(c3ccccc3)C(O)(CCN(C)C)c3cccc4ccccc34)cc2c1 (single isomer, unassigned) [Compound 8]",–,–,–,3.6,–,–,2.0,50.3,50.3,50.3,44.8,50.3,–,–,–,–,–
"COc1nc2ccc(N3CCOCC3)cc2cc1C(c1ccccc1)C(O)(CCN(C)C)c1ccccc1 (single isomer, unassigned) [Compound 36]",–,–,–,–,190,8.1,51.2,–,–,–,–,51.2,40.6,51.2,–,51.2,–
